Values of other authors, collected in patent publication US20210213091A1, “LIPOPHILIC ACTIVE AGENT INFUSED TOBACCO LEAVES AND/OR TOBACCO MATERIALS AND METHODS OF USE THEREOF” (priority 2018, published 2021).

human pulmonary uptake: 60%
Structure (SMILES): CC1=CC[C@H]2C[C@@H]1C2(C)C [α-Pinene, (1S,5S)-2,6,6-Trimethylbicyclo[3.1.1]hept-2-ene]
